# From patent US20260232657A1, “MELANOCORTIN SUBTYPE-2 RECEPTOR (MC2R) ANTAGONIST FOR THE TREATMENT OF ACTH-DEPENDENT CUSHING'S SYNDROME” (CRINETICS PHARMACEUTICALS, INC., priority 2023, published 2026)
# Key:
# [1] = Previous study in healthy volunteers; assay type: in vivo, human
# Source text: It has therefore been identified as an AESI in this study and may lead to dose limiting toxicity.
# [2] = tested on: corticosterone; test: ACTH excess model: rats given exogenous ACTH (1-24) via subcutaneous osmotic pump over 7 days; assay type: in vivo, rat; conditions: ACTH (1-24) osmotic pump, daily oral doses
# Procedure: (§1) Disease models mimicking states of ACTH excess and hypercortisolism included rats administered exogenous ACTH (1-24) via subcutaneous osmotic pump over 7 days and mice implanted with ACTH-secreting corticotroph AtT-20 tumor cells; animals received daily oral doses of placebo or Compound 1. […] However, six days after discontinuation of the highest dose of Compound 1 (75 mg/kg for 15 days), Ang-II stimulated aldosterone was suppressed, but sodium and potassium levels were normal.
# [3] = tested on: corticosterone; test: ACTH excess model: mice implanted with ACTH-secreting corticotroph AtT-20 tumor cells; assay type: in vivo, mouse; conditions: mice with AtT-20 tumor cells, daily oral doses
# Procedure: as §1
# [4] = molecular target: CYP2D6 (Homo sapiens, UniProt P10635); test: CYP involvement in metabolic clearance; assay type: in vitro ADME
# Source text: (§2) In vitro studies evaluated the metabolism of Compound 1 in plasma, liver microsomes, and/or 9000 g supernatant fraction of the liver homogenate (liver S9) from various species (including human).
# [5] = molecular target: T1, CYP2C8 (Homo sapiens, UniProt P10632); test: CYP involvement in metabolic clearance; assay type: in vitro ADME
# T1 sequence (P10632 1-490): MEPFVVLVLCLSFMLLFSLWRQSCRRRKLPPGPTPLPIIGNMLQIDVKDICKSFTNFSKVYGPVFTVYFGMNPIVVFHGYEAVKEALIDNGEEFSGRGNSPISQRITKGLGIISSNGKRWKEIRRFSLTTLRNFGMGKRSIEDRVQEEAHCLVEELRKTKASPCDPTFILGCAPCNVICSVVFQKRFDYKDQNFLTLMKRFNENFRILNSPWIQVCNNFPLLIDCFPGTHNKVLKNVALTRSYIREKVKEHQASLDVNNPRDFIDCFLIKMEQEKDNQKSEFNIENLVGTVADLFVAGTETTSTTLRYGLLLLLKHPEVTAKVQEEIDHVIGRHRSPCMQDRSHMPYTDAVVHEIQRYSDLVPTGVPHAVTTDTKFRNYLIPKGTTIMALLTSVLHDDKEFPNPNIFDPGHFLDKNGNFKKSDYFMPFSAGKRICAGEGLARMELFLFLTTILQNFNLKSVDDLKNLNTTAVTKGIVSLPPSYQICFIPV
# Source text: as §2
# [6] = molecular target: CYP3A4 (Homo sapiens, UniProt P08684); test: CYP involvement in metabolic clearance; assay type: in vitro ADME
# Source text: as §2
# [7] = molecular target: T2, MC2R (Homo sapiens, UniProt Q01718); test: ACTH-mediated G-protein activation and cAMP production; assay type: biochemical
# [8] = tested on: other human melanocortin receptor subtypes; test: Selectivity over other melanocortin receptor subtypes; assay type: binding; conditions: MC2R vs other subtypes
# [9] = molecular target: T2, MC2R; test: MC2R antagonist affinity / ACTH binding to the receptor
# [10] = In vitro metabolism in plasma, liver microsomes and liver S9; assay type: in vitro ADME, various species (including human); conditions: liver microsomes, liver S9
# Source text: as §2
# [11] = Repeat dose general toxicity study in rat; assay type: in vivo
# Procedure: (§3) The overall nonclinical safety of Compound 1 was assessed in 28-day and 3-month repeat dose general toxicity studies in rat and dog and in a battery of in vitro and in vivo genotoxicity and safety pharmacology studies.
# [12] = tested on: aldosterone; test: ACTH- and Angiotensin-II-stimulated aldosterone in vivo
# Procedure: as §1
# [13] = Safety pharmacology studies
# Procedure: as §3
# [14] = tested on: corticosterone secretion after ACTH (1-24); test: ACTH (1-24) challenge, corticosterone secretion in rats; assay type: in vivo, rat
# [15] = Repeat dose general toxicity study in dog; assay type: in vivo
# Procedure: as §3
# [16] = molecular target: 5-HT1B receptor (Homo sapiens, UniProt P28222); test: Screen for potential off-target activities; assay type: biochemical
# [17] = In vitro and in vivo genotoxicity studies; conditions: in vitro and in vivo battery
# Procedure: as §3
# [18] = Effect of food on absorption; assay type: in vivo, human; conditions: oral tablet
# Procedure: Participants will receive Compound 1 at the appropriate dose for their cohort as a single daily dose for 10 days at approximately 8 am. Tablets will be taken orally with 240 mL of water.
# [19] = six days after discontinuation of 75 mg/kg for 15 days
# T2 sequence (Q01718 whole entry): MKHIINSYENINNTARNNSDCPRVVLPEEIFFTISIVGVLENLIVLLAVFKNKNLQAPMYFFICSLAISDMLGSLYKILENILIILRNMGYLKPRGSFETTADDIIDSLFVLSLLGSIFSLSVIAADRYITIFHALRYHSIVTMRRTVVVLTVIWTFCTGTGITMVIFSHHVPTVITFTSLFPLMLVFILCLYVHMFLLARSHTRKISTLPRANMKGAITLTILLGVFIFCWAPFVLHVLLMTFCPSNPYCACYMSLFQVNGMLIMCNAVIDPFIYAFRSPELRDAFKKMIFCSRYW
# T2 sequence (Q8TCY5 whole entry partner): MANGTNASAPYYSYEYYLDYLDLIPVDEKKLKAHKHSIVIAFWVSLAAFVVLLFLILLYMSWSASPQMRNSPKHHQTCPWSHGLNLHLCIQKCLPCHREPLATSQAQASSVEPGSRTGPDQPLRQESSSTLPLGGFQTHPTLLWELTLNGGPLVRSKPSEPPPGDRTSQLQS
# Sequence of 5-HT1B receptor (P28222 whole entry): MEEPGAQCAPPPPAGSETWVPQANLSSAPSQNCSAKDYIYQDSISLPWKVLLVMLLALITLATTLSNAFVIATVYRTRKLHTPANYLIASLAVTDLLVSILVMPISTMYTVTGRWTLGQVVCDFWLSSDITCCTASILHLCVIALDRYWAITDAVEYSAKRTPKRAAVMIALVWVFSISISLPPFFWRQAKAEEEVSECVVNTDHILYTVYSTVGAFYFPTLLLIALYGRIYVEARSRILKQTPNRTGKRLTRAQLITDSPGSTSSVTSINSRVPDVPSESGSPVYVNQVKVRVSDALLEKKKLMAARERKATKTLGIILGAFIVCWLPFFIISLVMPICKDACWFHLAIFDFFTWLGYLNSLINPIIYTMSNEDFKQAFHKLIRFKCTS
# Sequence of CYP2D6 (P10635 whole entry): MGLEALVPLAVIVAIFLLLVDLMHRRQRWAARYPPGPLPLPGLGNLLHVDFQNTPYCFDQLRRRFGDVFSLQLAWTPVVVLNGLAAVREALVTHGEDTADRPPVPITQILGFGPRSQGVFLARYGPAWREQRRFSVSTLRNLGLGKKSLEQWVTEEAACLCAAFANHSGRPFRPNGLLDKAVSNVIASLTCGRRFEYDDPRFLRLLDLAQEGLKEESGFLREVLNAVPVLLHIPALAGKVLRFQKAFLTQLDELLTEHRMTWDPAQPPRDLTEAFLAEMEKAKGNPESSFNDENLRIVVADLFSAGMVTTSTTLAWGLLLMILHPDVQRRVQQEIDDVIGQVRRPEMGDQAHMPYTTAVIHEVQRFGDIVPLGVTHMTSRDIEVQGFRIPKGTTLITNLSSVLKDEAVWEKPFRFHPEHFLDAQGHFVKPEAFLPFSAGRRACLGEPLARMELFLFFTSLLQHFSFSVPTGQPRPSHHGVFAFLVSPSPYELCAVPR
# Sequence of CYP3A4 (P08684 whole entry): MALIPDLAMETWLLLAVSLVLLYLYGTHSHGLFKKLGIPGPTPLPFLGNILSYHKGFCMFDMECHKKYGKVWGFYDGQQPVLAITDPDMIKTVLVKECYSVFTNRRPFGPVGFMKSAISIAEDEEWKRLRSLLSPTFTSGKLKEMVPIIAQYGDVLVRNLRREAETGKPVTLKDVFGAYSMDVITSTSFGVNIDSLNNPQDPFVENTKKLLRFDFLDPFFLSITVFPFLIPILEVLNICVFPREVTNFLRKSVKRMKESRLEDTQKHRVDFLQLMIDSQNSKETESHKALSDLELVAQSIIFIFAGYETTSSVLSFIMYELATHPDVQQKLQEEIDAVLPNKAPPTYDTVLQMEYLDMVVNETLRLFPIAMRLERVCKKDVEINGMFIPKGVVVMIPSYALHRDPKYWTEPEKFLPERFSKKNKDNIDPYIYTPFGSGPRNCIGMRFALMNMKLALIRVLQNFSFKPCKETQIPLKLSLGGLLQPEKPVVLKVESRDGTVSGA
compound,measurement,setting,value
"CCOc1ccccc1-c1ccc(N2CCN(C(=O)C3(C(F)(F)F)CCC3)C[C@H]2CC)c(C(=O)N[C@@H]2CN3CCC2CC3)n1 [Compound 1, 6-(2-ethoxyphenyl)-3-((R)-2-ethyl-4-(1-(trifluoromethyl)cyclobutane-1-carbonyl)piperazin-1-yl)-N—((S)-quinuclidin-3-yl) picolinamide]",adverse event observed during treatment,[1],Glucocorticoid deficiency was observed
same,adrenal gland effect,[2],dose-dependent adrenal gland atrophy
same,decrease of corticosterone values on Days 1 and 7 (maximum),[2],≤ 92%
same,adrenal gland effect,[3],dose-dependent adrenal gland atrophy
same,decrease of corticosterone values on Days 1 and 7 (maximum),[3],≤ 92%
same,role of CYP2D6 in catalyzing oxidative metabolism,[4],may also have a minor contribution
same,role of CYP2C8 in catalyzing oxidative metabolism,[5],may also have a minor contribution
same,role of CYP3A4 in catalyzing oxidative metabolism,[6],plays a key role
same,ACTH-mediated G-protein activation and subsequent cAMP production,[7],potently blocked
same,selectivity over other human melanocortin receptor subtypes,[8],> 2900 fold
same,ACTH binding to the receptor,[9],potently blocked
same,Ki,[9],< 10 nM
same,primary metabolic pathways involved in metabolic clearance,[10],"oxidative metabolism, resulting in formation of hydroxylated and desmethyl metabolites"
same,target organ toxicity finding,[11]; 28-day rat study,foamy macrophages in the lungs
same,consistency of rat lung findings with drug-induced PLD,[11]; rat lung,not to be consistent with drug-induced PLD
same,Angiotensin-II stimulation of aldosterone,[12]; during treatment,did not affect
same,ACTH-stimulated aldosterone levels,[12]; in vivo,reduced
same,Ang-II stimulated aldosterone after discontinuation,[12]; [19],suppressed
same,sodium and potassium levels after discontinuation,[12]; [19],normal
same,"adverse effects on core organ systems (cardiovascular, central nervous, respiratory)",[13],No findings
same,corticosterone secretion after 1 μg/kg ACTH (1-24),"[14]; oral, 3 and 10 mg/kg, male and female rats",dose-dependently suppressed
same,"corticosterone after ACTH administration at 1, 4, 24, and 48 hours after a single dose","[14]; single dose, time course",dose-dependent suppression of corticosterone at 1 and 4 hours only
same,target organ toxicity finding,[15]; 3-month dog study,adrenal and liver atrophy
same,adrenal gland and liver findings with hydrocortisone supplementation,[15]; dog,mitigated with hydrocortisone supplementation
same,selectivity for hMC2R over 5-HT1B,[16],more than 2200 fold
same,agonist activity against the 5-HT1B receptor,[16]; off-target screen,no agonist activity
same,antagonist activity against the 5-HT1B receptor,[16]; off-target screen,weak antagonist
same,genotoxic risk,[17],No findings indicating significant genotoxic risk
same,effect of food on absorption,[18],minimal effect of food on absorption
